Laboratory results reported in the supplement of paper PMC10307832.

Legend:
Test in all cases: relative viability (nuclei count vs DMSO), 5 days (fraction); higher = more cells survive
Dactolisib + Lapatinib = compound: Cn1c(=O)n(-c2ccc(C(C)(C)C#N)cc2)c2c3cc(-c4cnc5ccccc5c4)ccc3ncc21 [Dactolisib] + CS(=O)(=O)CCNCc1ccc(-c2ccc3ncnc(Nc4ccc(OCc5cccc(F)c5)c(Cl)c4)c3c2)o1 [Lapatinib] (partner 2 µM)
Summary of the method: (§1)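 Lung cancer cell lines, seeded in 1536-well plates, were treated the following day by pin tool with a single drug or with five library-drug doses (not always all listed) in √10 steps on top of a fixed anchor-drug dose. Cells were fixed and nuclei stained in one step after 5 days, and nuclei were counted. Relative viability is the nuclei count for treated wells divided by that for vehicle wells, reported as medians of duplicate plates.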

AZ505 + Phenformin = compound: C1CCC(CC1)N(CCNCCC2=C3C(=C(C=C2)O)NC(=O)CO3)C(=O)CCNCCC4=CC(=C(C=C4)Cl)Cl [AZ505] + N=C(N)NC(=N)NCCc1ccccc1 [Phenformin] (partner 250 µM)
Summary of the method: as §1

AZ505 + Vorinostat = compound: C1CCC(CC1)N(CCNCCC2=C3C(=C(C=C2)O)NC(=O)CO3)C(=O)CCNCCC4=CC(=C(C=C4)Cl)Cl [AZ505] + O=C(CCCCCCC(=O)Nc1ccccc1)NO [Vorinostat] (partner 1 µM)
Summary of the method: as §1

Dactolisib + Vorinostat = compound: Cn1c(=O)n(-c2ccc(C(C)(C)C#N)cc2)c2c3cc(-c4cnc5ccccc5c4)ccc3ncc21 [Dactolisib] + O=C(CCCCCCC(=O)Nc1ccccc1)NO [Vorinostat] (partner 1 µM)
Summary of the method: as §1

Cell Line	relative viability (Dactolisib + Lapatinib; first compound 0.002 µM)	relative viability (Dactolisib + Lapatinib; first compound 0.006325 µM)	relative viability (Dactolisib + Lapatinib; first compound 0.02 µM)	relative viability (Dactolisib + Lapatinib; first compound 0.06325 µM)	relative viability (Dactolisib + Lapatinib; first compound 0.2 µM)	relative viability (AZ505 + Phenformin; first compound 0.08 µM)	relative viability (AZ505 + Phenformin; first compound 0.253 µM)	relative viability (AZ505 + Phenformin; first compound 0.8 µM)	relative viability (AZ505 + Phenformin; first compound 2.53 µM)	relative viability (AZ505 + Phenformin; first compound 8 µM)	relative viability (AZ505 + Vorinostat; first compound 0.08 µM)	relative viability (AZ505 + Vorinostat; first compound 0.253 µM)	relative viability (AZ505 + Vorinostat; first compound 0.8 µM)	relative viability (AZ505 + Vorinostat; first compound 2.53 µM)	relative viability (AZ505 + Vorinostat; first compound 8 µM)	relative viability (Dactolisib + Vorinostat; first compound 0.002 µM)	relative viability (Dactolisib + Vorinostat; first compound 0.006325 µM)	relative viability (Dactolisib + Vorinostat; first compound 0.02 µM)	relative viability (Dactolisib + Vorinostat; first compound 0.06325 µM)	relative viability (Dactolisib + Vorinostat; first compound 0.2 µM)
NCI-H1975	0.796	0.767	0.643	0.327	0.284	0.348	0.402	0.419	0.405	0.429	0.632	0.61	0.625	0.592	0.666	0.788	0.622	0.575	0.429	0.266
CAL-12T	0.792	0.567	0.537	0.366	0.258	0.473	0.531	0.553	0.525	0.649	0.577	0.971	0.692	0.849	1.01	0.798	0.913	0.722	0.209	0.199
NCI-H1623	–	–	–	–	–	0.54	0.504	0.621	0.509	0.629	–	–	–	–	–	–	–	–	–	–
HCC-44	1.09	1	1	0.68	0.547	0.144	–	0.294	0.247	0.207	1.09	1.09	1.06	1.23	1.14	1.12	1.14	1.21	1.14	0.885
EKVX	0.242	0.189	0.212	0.164	0.129	0.21	0.245	0.238	0.198	0.251	0.66	0.766	0.687	0.548	0.899	0.794	0.72	0.657	0.359	0.273
NCI-H1651	0.84	0.788	0.643	0.35	0.303	0.385	0.346	0.318	0.357	0.345	0.443	0.606	0.585	0.607	0.568	0.579	0.645	0.547	0.391	0.377
NCI-H1944	0.808	0.814	0.758	0.412	0.378	0.197	0.184	0.233	0.193	0.21	0.563	0.551	0.641	0.514	0.55	0.576	0.56	0.492	0.29	0.223
NCI-H1703	0.688	0.796	0.716	0.379	0.314	–	–	–	–	–	–	–	–	–	–	–	–	–	–	–
Calu-6	1.18	1.08	0.98	0.645	0.531	–	–	–	–	–	–	–	–	–	–	–	–	–	–	–
EBC-1	0.237	0.203	0.241	0.19	0.182	–	–	–	–	–	–	–	–	–	–	–	–	–	–	–
A-427	1.06	1.04	0.928	0.883	0.776	0.309	0.255	0.327	0.395	0.298	0.877	0.839	0.82	0.872	0.837	0.894	0.864	0.834	0.706	0.647
NCI-H2347	1.16	0.943	0.843	0.906	0.813	0.271	–	–	–	0.331	0.39	0.417	0.474	0.464	0.352	0.557	0.55	0.585	0.364	0.378
NCI-H1355	1.02	0.879	0.939	0.521	0.388	0.433	0.407	0.477	0.481	0.499	0.53	0.59	0.585	0.624	0.62	0.693	0.608	0.558	0.408	0.295
NCI-H358	0.443	0.439	0.379	0.304	0.267	0.356	0.346	0.351	0.24	0.364	0.665	1.03	0.834	0.633	0.69	0.68	0.652	0.503	0.154	0.165
PC-3 [JPC-3]	0.486	0.492	0.44	0.456	0.361	0.423	0.446	0.433	0.484	0.422	0.821	–	0.786	0.934	1.09	0.968	0.843	0.748	0.782	0.426
NCI-H2228	0.993	0.914	0.496	0.246	0.246	0.291	0.222	0.279	0.392	0.224	0.409	0.589	0.543	0.643	0.588	0.652	0.682	0.429	0.327	0.164
HOP-62	1.28	1.04	0.891	0.756	0.667	0.63	0.797	0.67	0.725	0.784	0.607	0.605	0.658	0.628	0.732	0.572	0.541	0.543	0.177	0.219
HARA	0.652	0.67	0.761	0.421	0.318	0.389	0.422	0.42	0.343	0.408	0.547	0.522	0.457	0.471	0.541	0.578	0.461	0.523	0.41	0.11
NCI-H838	0.983	0.717	0.463	0.249	0.224	0.503	0.491	0.49	0.466	0.579	0.674	0.73	0.67	0.737	0.787	0.746	0.575	0.497	0.36	0.306
